Measurements taken from patent US12589087B2, “Enantiomer selective action on neurotransmission” (The Board of Trustees of the Leland Stanford Junior …, priority 2021, dated 2026).

Experiments:
GluN2A = biological target: T1, GluN2A (Homo sapiens, UniProt Q12879); test: FLIPR functional assay, HEK 293 cells (agonist/PAM/antagonist); assay type: cell-based; conditions: top concentration 100 μM, read-out: IC50, functional antagonist receptor assay
T1 construct: host or cells: HEK 293 (stably expressing)
Protocol: Functional assays of all GABAA, NMDA (GluN2A-GluN2D) and AMPA (GluA2) receptor subunits were performed by SB Drug Discovery as a part of their CNS discovery panel using FLIPR technology. Briefly, receptor-expressing HEK 293 cell lines were incubated in a red membrane potential dye in HEPES:HBSS pH 7.4 buffer and the fluorescence (λex: 488, λex: 510-570) was monitored over time as the test compounds and/or reference compounds were added to the solution. In agonist assay, only test compounds were added. In positive allosteric modulator assay, cells were preincubated with test compounds and then low concentration (approximately EC20) of an appropriate agonist was added. In antagonist assay, cells were preincubated with test compounds and then high concentration (approximately EC80) of an appropriate agonist was added. For GABAA assays, GABA was used as the agonist, picrotoxin was used as the reference antagonist and allopregnanolone was used as the reference positive allosteric modulator (PAM). For NMDA assays, a mixture of glutamate, glycine and CaCl2 was used as the agonist, MK801 was the reference antagonist and pregnenolone sulfate or GNE 9278 were used as reference PAMs. For AMPA assays, glutamate was used as the agonist, CNQX was the reference antagonist and cyclothiazide was used as the reference PAM. All compounds were tested at 7 concentration points in triplicate and EC50/IC50 was determined where applicable. Functional GABAB assay was performed by Eurofins Discovery (Cerep) using Ca^2+-dependent fluorimetry in RBL cells expressing human GABAB (B1/B2) receptor. All compounds were tested at a single concentration of 100 uM in triplicate.
All receptor assays were performed exactly as described in Example 1. Functional assays of all GABAA, NMDA (GluN2A-GluN2D) and AMPA (GluA2) receptor subunits were performed by SB Drug Discovery as a part of their CNS discovery panel using FLIPR technology. All compounds were tested at 7 concentrations in triplicate and EC50/IC50 was determined where applicable. Functional GABAB assay was performed by Eurofins Discovery (Cerep) using Ca^2+-dependent fluorimetry in RBL cells expressing human GABAB (B1/B2) receptor. All compounds were tested at a single concentration of 100 uM in triplicate. Nonspecific AMPA, kainate and NMDA binding assays were performed by Eurofins Discovery (Cerep) using rat cerebral cortex membranes and radiolabeled [^3H]AMPA, [^3H]kainic acid and [^3H]CGP 39653, respectively. All compounds were tested at a single concentration of 100 uM in triplicate. mGluR1, mGluR2, mGluR5 and GABAB binding assays were performed by Eurofins Discovery. All compounds were tested at a single concentration of 100 uM in triplicate.

MPTP model of PD = test: MPTP model of PD, fine motor kinematic score; assay type: in vivo, mouse; conditions: 50 mg/kg/d IP, days −5 to 14
Protocol: Five groups of mice were treated with 40 mg/kg/d MPTP IP on days 1 and 2 and two concentrations of two test agents IP from days −5 to day 14 (FIG. 22). One group received vehicle, two groups received 5 or 50 mg/kg/d S-2MeGlu, and two groups received 5 or 50 mg/kg/d R-4APA. […] The high-precision fine motor kinematic protocol quantifies over 100 indices of gait and balance and integrates them into an overall kinematic score; higher score indicates greater impairment. […] Mice were sacrificed on day 15 and striatal dopamine as well as its major metabolites were quantified by HPLC with electrochemical detection.

Line 41 mice = test: Transgenic Aβ model of AD, behavior tests; assay type: in vivo; conditions: 10 mg/kg/d IP for 6 weeks
Protocol: Cerebral Aβ accumulation is a core feature of AD. Since memantine, a glutamate receptor subtype antagonist is an approved treatment for people with AD, we tested whether our false glutamatergic neurotransmitter might be therapeutic in a transgenic model of AD. Four month old Line 41 male mice were treated with S-2MeGlu at 10 mg/kg/d IP for 6 weeks with behavior tested using activity chamber, Y maze, novel object and novel place recognition, Morris water maze, and fear conditioning.

T1 sequence (Q12879 23-1464, other chains not shown): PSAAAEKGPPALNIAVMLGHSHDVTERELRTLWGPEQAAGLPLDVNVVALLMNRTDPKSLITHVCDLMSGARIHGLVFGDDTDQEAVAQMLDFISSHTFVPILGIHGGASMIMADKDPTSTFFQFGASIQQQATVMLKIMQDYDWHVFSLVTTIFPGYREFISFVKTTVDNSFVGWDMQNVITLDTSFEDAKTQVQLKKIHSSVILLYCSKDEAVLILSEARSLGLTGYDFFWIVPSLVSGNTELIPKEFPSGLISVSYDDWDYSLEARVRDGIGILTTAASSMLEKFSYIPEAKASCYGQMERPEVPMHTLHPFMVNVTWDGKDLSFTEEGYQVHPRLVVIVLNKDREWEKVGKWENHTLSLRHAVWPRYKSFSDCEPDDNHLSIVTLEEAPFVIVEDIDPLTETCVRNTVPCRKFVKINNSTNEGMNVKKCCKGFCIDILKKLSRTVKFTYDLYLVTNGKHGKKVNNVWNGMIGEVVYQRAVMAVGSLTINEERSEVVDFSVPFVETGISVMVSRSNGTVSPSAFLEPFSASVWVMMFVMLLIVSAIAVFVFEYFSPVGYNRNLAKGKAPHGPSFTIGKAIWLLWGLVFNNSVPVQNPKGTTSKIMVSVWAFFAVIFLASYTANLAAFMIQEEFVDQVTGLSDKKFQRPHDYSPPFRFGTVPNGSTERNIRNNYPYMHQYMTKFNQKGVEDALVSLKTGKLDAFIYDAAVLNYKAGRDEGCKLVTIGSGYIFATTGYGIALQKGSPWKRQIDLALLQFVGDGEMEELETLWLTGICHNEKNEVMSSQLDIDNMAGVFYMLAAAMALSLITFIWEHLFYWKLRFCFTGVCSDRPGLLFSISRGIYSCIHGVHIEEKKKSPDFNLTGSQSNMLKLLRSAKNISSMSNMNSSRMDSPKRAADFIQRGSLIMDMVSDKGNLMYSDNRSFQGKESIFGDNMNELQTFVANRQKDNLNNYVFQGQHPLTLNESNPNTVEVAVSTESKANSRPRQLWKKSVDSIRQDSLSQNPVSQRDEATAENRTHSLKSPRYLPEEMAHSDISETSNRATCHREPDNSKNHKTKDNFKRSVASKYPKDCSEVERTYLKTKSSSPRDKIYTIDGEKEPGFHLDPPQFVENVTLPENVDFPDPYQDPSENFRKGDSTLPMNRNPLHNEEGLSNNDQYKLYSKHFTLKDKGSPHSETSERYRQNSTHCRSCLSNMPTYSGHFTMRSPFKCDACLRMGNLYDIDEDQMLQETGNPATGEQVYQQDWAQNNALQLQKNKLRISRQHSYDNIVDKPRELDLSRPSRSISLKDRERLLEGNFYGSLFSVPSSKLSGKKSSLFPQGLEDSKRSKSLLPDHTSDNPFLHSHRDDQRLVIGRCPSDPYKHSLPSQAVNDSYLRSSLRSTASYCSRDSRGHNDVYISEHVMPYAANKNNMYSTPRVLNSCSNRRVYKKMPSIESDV

Structure (SMILES) | IC50 (GluN2A) [µM] | rescue of motor deficit from MPTP (overall kinematic score) (MPTP model of PD) | Aβ accumulation by immunohistochemistry (Line 41 mice) | behavior tests (activity chamber, Y maze, novel object and place recognition, Morris water maze, fear conditioning) (Line 41 mice) | body weights or deaths (Line 41 mice)
C[C@@](N)(CCC(=O)O)C(=O)O [(R)-2MeGlu, (R)-2-methylglutamic acid] | 69 |  |  |  | 
C[C@](N)(CCC(=O)O)C(=O)O [(S)-2MeGlu, (S)-2-methylglutamic acid] |  | significantly rescued the motor deficit from MPTP | no change in Aβ accumulation | only rescued performance in the Y maze | no difference in body weights or any deaths
